From patent publication US8383786B2, “Pesticidal compositions” (Dow AgroSciences, LLC., priority 2009, dated 2013)

How the values were obtained:
[1] = tested on: beet armyworm (BAW; Spodoptera exigua: Lepidoptera); test: 128-well diet tray assay on beet armyworm (BAW 50); format: in vivo; conditions: 144 h, 50 ug/cm^2 of test compound on diet, second instar BAW larvae, 25° C., six days, average of eight wells, read-out: BAW 50 (percent mortality)
Experimental: (§1) Bioassays on beet armyworm (BAW; Spodoptera exigua: Lepidoptera) were conducted using either a 96-well microtiter plate-based high throughput (HTS) bioassay or a 128-well diet tray assay. The HTS assay is a based on a modification of Lewer et al. J. Nat. Prod. 2006, 69, 1506. BAW eggs were placed on top of artificial diet (100 microliters (μL)) in each well of 96-well microtiter plate. The diet was pretreated with test compounds (12 micrograms (μg) dissolved in 30 μL of DMSO-acetone-water mixture) layered on top of the diet using a liquid handling system and then allowed to dry for several hours. Infested plates were then covered with a layer of sterile cotton batting and the plate lid, and then held in the dark at 29° C. Mortality was recorded at 6 days (d) post-treatment. Each plate had six replicates. The percent mortality was calculated from the average of the six replicates. In the case of the 128-well diet assay, three to five second instar BAW larvae were placed in each well (3 mL) of the diet tray that had been previously filled with 1 mL of artificial diet to which 50 ug/cm^2 of the test compound (dissolved in 50 μL of 90:10 acetone/water mixture) had been applied (to each of eight wells) and then allowed to dry. Trays were covered with a clear self-adhesive cover, and held at 25° C., 14:10 light:dark for six days. Percent mortality was recorded for the larvae in each well; activity in the eight wells was then averaged. In Table 2 under both the BAW HTS and the BAW 50 headings, an “A” means that the compound was tested and at least 50 percent mortality was observed whereas, “B” means that either (1) the compound was tested and less than 50 percent mortality was observed or (2) the compound was not tested.

[2] = tested on: beet armyworm (BAW; Spodoptera exigua: Lepidoptera); test: 96-well microtiter plate-based high throughput (HTS) bioassay on beet armyworm (BAW HTS); format: in vivo; conditions: 96-well plate; 12 μg test compound on 100 μL diet; BAW eggs; 29° C.; 6 days post-treatment; average of six replicates
Experimental: as §1

SMILES | mortality at 50 µg/cm2 [1] | BAW HTS (percent mortality) [2]
CO[C@@H]1[C@@H](OC)[C@H](C)O[C@@H](OC2Cc3ccc(-c4ccnc(-c5ccc(Cl)cc5)n4)cc3C2)[C@@H]1OC (stereo partly drawn) [Compound 1C, 2-(4-Chlorophenyl)-4-[2-((2R,3R,4R,5S,6S)-3,4,5-trimethoxy-6-methyl-tetrahydropyran-2-yloxy)-indan-5-yl]-pyrimidine] | > 50% | B (either (1) the compound was tested and less than 50 percent mortality was observed or (2) the compound was not tested)
CO[C@@H]1[C@@H](OC)[C@H](C)O[C@@H](OC2Cc3ccc(-c4ccnc(-c5ccc(Cl)cc5Cl)n4)cc3C2)[C@@H]1OC (stereo partly drawn) [Compound 2C, 2-(2,4-Dichlorophenyl)-4-[2-((2R,3R,4R,5S,6S)-3,4,5-trimethoxy-6-methyl-tetrahydropyran-2-yloxy)-indan-5-yl]-pyrimidine] | < 50% | A (the compound was tested and at least 50 percent mortality was observed)
CO[C@@H]1[C@@H](OC)[C@H](C)O[C@@H](OC2Cc3ccc(-c4ccnc(-c5cccc(C(F)(F)F)c5)n4)cc3C2)[C@@H]1OC (stereo partly drawn) [Compound 3C, 2-(3-Trifluoromethylphenyl)-4-[2-((2R,3R,4R,5S,6S)-3,4,5-trimethoxy-6-methyl-tetrahydropyran-2-yloxy)-indan-5-yl]-pyrimidine] | > 50% | B (either (1) the compound was tested and less than 50 percent mortality was observed or (2) the compound was not tested)
CO[C@@H]1[C@@H](OC)[C@H](C)O[C@@H](OC2Cc3ccc(-c4ccnc(-c5ccc(C(F)(F)F)cc5)n4)cc3C2)[C@@H]1OC (stereo partly drawn) [Compound 4C, 2-(4-Trifluoromethylphenyl)-4-[2-((2R,3R,4R,5S,6S)-3,4,5-trimethoxy-6-methyl-tetrahydropyran-2-yloxy)-indan-5-yl]-pyrimidine] | > 50% | B (either (1) the compound was tested and less than 50 percent mortality was observed or (2) the compound was not tested)
COc1ccc(-c2nccc(-c3ccc4c(c3)CC(O[C@@H]3O[C@@H](C)[C@H](OC)[C@@H](OC)[C@H]3OC)C4)n2)cc1 (stereo partly drawn) [Compound 5C, 2-(4-methoxyphenyl)-4-[2-((2R,3R,4R,5S,6S)-3,4,5-trimethoxy-6-methyl-tetrahydropyran-2-yloxy)-indan-5-yl]-pyrimidine] | > 50% | A (the compound was tested and at least 50 percent mortality was observed)
CO[C@@H]1[C@@H](OC)[C@H](C)O[C@@H](OC2Cc3ccc(-c4ccnc(-c5cccnc5)n4)cc3C2)[C@@H]1OC (stereo partly drawn) [Compound 6C, 2-Pyridin-3-yl-4-[2-((2R,3R,4R,5S,6S)-3,4,5-trimethoxy-6-methyl-tetrahydropyran-2-yloxy)-indan-5-yl]-pyrimidine] | < 50% | B (either (1) the compound was tested and less than 50 percent mortality was observed or (2) the compound was not tested)
CO[C@@H]1[C@@H](OC)[C@H](C)O[C@@H](OC2Cc3ccc(-c4ccnc(-c5ccccc5)n4)cc3C2)[C@@H]1OC (stereo partly drawn) [Compound 7C, 2-Phenyl-4-[2-((2R,3R,4R,5S,6S)-3,4,5-trimethoxy-6-methyl-tetrahydropyran-2-yloxy)-indan-5-yl]-pyrimidine] | < 50% | B (either (1) the compound was tested and less than 50 percent mortality was observed or (2) the compound was not tested)
CO[C@@H]1[C@@H](OC)[C@H](C)O[C@@H](OC2Cc3ccc(-c4ccn(-c5ccc(C(F)(F)F)cn5)n4)cc3C2)[C@@H]1OC (stereo partly drawn) [Compound 8C, 5-trifluoromethyl-2-{3-[2-((2R,3R,4R,5S,6S)-3,4,5-trimethoxy-6-methyl-tetrahydropyran-2-yloxy)-indan-5-yl]-pyrazol-1-yl}-pyridine] | > 50% | A (the compound was tested and at least 50 percent mortality was observed)
CO[C@@H]1[C@@H](OC)[C@H](C)O[C@@H](OC2Cc3ccc(-c4ccn(-c5nnc(C(F)(F)F)s5)n4)cc3C2)[C@@H]1OC (stereo partly drawn) [Compound 9C, 2-trifluoromethyl-5-{3-[2-((2R,3R,4R,5S,6S)-3,4,5-trimethoxy-6-methyl-tetrahydropyran-2-yloxy)-indan-5-yl]-pyrazol-1-yl}-[1,3,4]thiadiazole] | > 50% | A (the compound was tested and at least 50 percent mortality was observed)
CO[C@@H]1[C@@H](OC)[C@H](C)O[C@@H](OC2Cc3ccc(-c4ccn(-c5ccc(OC(F)(F)C(F)(F)F)cc5)n4)cc3C2)[C@@H]1OC (some centres unmarked) [Compound 10C] | > 50% | A (the compound was tested and at least 50 percent mortality was observed)
